Experiments:
[1] = test system: synovial cells (RASC) from rheumatoid arthritis (RA) patients; assay: Synovial cell proliferation inhibition (MTT method), RASC; type: cell-based, human; details: MTT on days 4, 8 and 12, HA/Zn and Na-HA 10-300 μg/ml, Zn at 1/10 of these, vs non-drug addition group
Method: (§1) The effects of the complex of hyaluronic acid and zinc (HA/Zn) of the present invention, and the effects of sodium hyaluronate (Na-HA) and zinc (Zn) as comparison controls were tested on synovial cells (RASC) from rheumatoid arthritis (RA) patients, synovial cells (OASC) from osteoarthritis (OA) patients, and synovial cells (TASC) from traumatic arthritis (TA) patients.
(§2) The test substances used consisted of HA/Zn (Lot No. A65242, 1% solution, Gedeon-Richter, Ltd.), sodium hyaluronate (Na-HA, Lot No. KK4001, Q.P. Corp.), and zinc chloride (Zn, Lot No. ESH1413, Wako Pure Chemical Ind., Ltd.). Quantitative values of the contents of hyaluronic acid and zinc contained in the above-mentioned HA/Zn solution (specific gravity; d^2020=1.0134) were determined in advance. Since the amount of hyaluronic acid was 99% (105.0% when calculated as sodium hyaluronate) and the amount of zinc was 1.07 mg/ml when the above-mentioned 1% is assigned a value of 100, the weight ratio of hyaluronic acid to zinc in said HA/Zn was considered to be 10:1 (Na-HA:Zn). The test substances were tested at concentrations of 10 μg/ml, 30 μg/ml, 100 μg/ml, 150 μg/ml, 200 μg/ml, 250 μg/ml and 300 μg/ml for HA/Zn, the same concentrations as HA/Zn for Na-HA, and at 1/10 the concentrations of HA/Zn for Zn.
(§3) Synovial membrane tissue was sampled from the knee joint of rheumatoid arthritis (RA) patients (5 cases, 65.6±10.6 years old) and osteoarthritis (OA) patients (6 cases, 73.4±8.9 years old) during artificial joint replacement surgery, and from the knee joint of traumatic arthritis (TA) patients (6 cases, 25.6±6.7 years old) during arthroscopic surgery. […]
(§4) The synovial cells (SC) were inoculated into a microplate (96 wells, Iwaki) at a concentration of 3.55×10^3 cells/0.1 ml/well (1×10^4 cells/cm^2), and pre-cultured for 2 days at 37° C. in a vapor phase consisting of 5% CO2 and 95% air. […] The results were expressed with the optical absorbance that indicated a positive correlation with the number of cells. […]

[2] = test system: synovial cells (OASC) from osteoarthritis (OA) patients; assay: Synovial cell proliferation inhibition (MTT method), OASC; type: cell-based, human; details: MTT on days 4, 8 and 12, HA/Zn and Na-HA 10-300 μg/ml, Zn at 1/10 of these, vs non-drug addition group
Method: as §1, §2, §3, §4

[3] = test system: matrix metalloproteinase MMP-9; assay: Suppression of MMP-9 in synovial cell culture supernatant (EIA); type: cell-based, human; details: for production of MMP-9 relative to control (non-drug addition = 100%): culture supernatant day 8, HA/Zn and Na-HA 100 μg/ml, Zn 10 μg/ml, divided by MTT absorbance
Method: Synovial cells were inoculated into culture dishes (diameter: 35 mm, Iwaki) to a concentration of 10×10^4 cells/2 ml/dish (1×10^4 cells/cm^2), and pre-cultured for 2 days at 37° C. in a vapor phase consisting of 5% CO2 and 95% air. Later, the media were replaced with media containing each drug, and the culture supernatants were sampled on day 8 of culturing under the same conditions followed by storage at −80° C. until measurement. The added concentrations of HA/Zn and Na-HA were 100 μg/ml (final concentration), while the concentration of Zn was 10 μg/ml (final concentration). The amount of matrix metalloproteinase MMP-9 in the supernatant was measured using EIA (Enzyme Immunoassay). In order to examine the results calculated as concentration in the supernatant per cell, the results were converted to values divided by the optical absorbance value of synovial cells by MTT at that time. In addition, this value was further expressed as a relative value to the control of the individual value of each drug addition group while assigning the control (non-drug addition group) a value of 100%.

[4] = test system: synovial cells (TASC) from traumatic arthritis (TA) patients; assay: Synovial cell proliferation inhibition (MTT method), TASC; type: cell-based, human; details: MTT on days 4, 8 and 12, HA/Zn and Na-HA 10-300 μg/ml, Zn at 1/10 of these, vs non-drug addition group
Method: as §1, §2, §3, §4

[5] = Systemic toxicity after subcutaneous administration, mice; type: in vivo; details: physically allowed maximum dose 200 mg/kg
Method: (§5) Administration methods normally performed for pharmaceuticals can be used for the hyaluronic acid/zinc complex of the present invention. Namely, the above-mentioned complex can be administered orally or parenterally, and administration by injection is particularly preferable. The effective dose of the hyaluronic acid/zinc complex of the present invention is 0.01 mg to 1 mg, and preferably 0.03 mg to 0.5 mg per joint per administration per person. […] The agent for treatment of arthritic disease and matrix metalloproteinase MMP-9 suppresser of the present invention can contain 0.001% to 1%, and preferably 0.01% to 0.5%, of the hyaluronic acid/zinc complex of the present invention with a routinely used pharmaceutical carrier. Examples of routinely used pharmaceutical carriers include bases typically used in therapeutic applications such as chitosan, starch, pectin, HPMC and sodium alginate, binders such as tragacanth gum, gum arabic, cornstarch and gelatin, vehicles such as crystalline cellulose and mannitol, disintegrating agents such as cornstarch, α-starch and alginic acid, lubricants such as magnesium stearate, sweeteners such as sucrose, lactose and saccharin, flavorings such as peppermint, mint and cherry, and antiseptics.

[6] = Systemic toxicity after subcutaneous administration, rats; type: in vivo; details: physically allowed maximum dose 200 mg/kg
Method: as §5

## [Cl-].[Cl-].[Zn+2] [Zn, zinc chloride]
[1]
  proliferation of synovial cells (inhibition): significant inhibition
[2]
  proliferation of synovial cells (inhibition): significant inhibition
[3]
  production of MMP-9 relative to control (non-drug addition = 100%): 50%
[4]
  proliferation of synovial cells (inhibition): significant inhibition

## complex of hyaluronic acid and zinc [HA/Zn]
[5]
  symptoms of systemic toxicity: not observed to cause symptoms of systemic toxicity
[6]
  symptoms of systemic toxicity: not observed to cause symptoms of systemic toxicity
[1]
  proliferation of synovial cells (inhibition): significantly inhibited dependent on the amount added
[2]
  proliferation of synovial cells (inhibition): significantly inhibited dependent on the amount added
[3]
  production of MMP-9 relative to control (non-drug addition = 100%): 0%
[3]; synovial cells originating in rheumatoid arthritis, in vitro
  concentration at which MMP-9 is suppressed: ≤ 100 µg/mL
[4]
  proliferation of synovial cells (inhibition): significantly inhibited dependent on the amount added

## sodium hyaluronate [Na-HA]
[1]
  proliferation of synovial cells (inhibition): not significantly inhibited
[2]
  proliferation of synovial cells (inhibition): not significantly inhibited
[3]
  production of MMP-9 relative to control (non-drug addition = 100%): 100%
[4]
  proliferation of synovial cells (inhibition): not significantly inhibited

— patent publication US6608043B1, “Remedies for joint diseases” (Takata Seiyaku Co., Ltd., priority 1999, dated 2003)
